Measured values published in US8835466B2, “Synthesis and uses of pyroglutamic acid derivatives” (Prodimed, S.A., priority 2006, dated 2014).

Key:
[1] = test system: ASB XIV cells (pulmonary squamous cell carcinoma); experiment: Effect of isomers and BLAS on in vivo tumour growth, ASB XIV tumours (Example 8); set-up: species or system Balb/c mice; settings: for Tumour surface, overall values (Mean) / Tumour surface, overall values (Median) / Tumour volume, overall values (Mean) / Tumour volume, overall values (Median): 260 ng/mouse i.p. days 6, 7 and 14
Description: This assay was made in order to compare the effect of each stereoisomer on in vivo tumour growth in mice with the effect of the mixture of all of them challenged with ASB XIV tumours. The stereoisomers assayed were the same as in example 7 above plus a mixture of all of them (BLAS). The equipment (when needed), reagents, dose, vehicle and route and volume of administration were the same as in example 7.
ASB XIV is a pulmonary squamous cell carcinoma originated in Balb/c mouse strain, and therefore syngeneic in mice with Balb/c genetic background.
(§1) ASB XIV cells (CLS, Eppelheim, Germany) were maintained in vitro by serial passages every 3-4 days. Cultures were performed with RPMI medium medium (RPMI, 10% foetal calf serum, 2 mM L-glutamine, non essential aminoacids, 1 mM sodium pyruvate, 20 mM HEPES, 80 μg/mL gentamycin; all of them were purchased from Sigma, St. Louis, Mo., USA) by seeding 5×10^6 cells onto 75 cm^2 culture flasks. Tumour cells collected from 48 hour cultures upon trypsinization (Sigma, St. Louis, Mo., USA) were used as source of ASB XIV cells in the present example.
• BLAS (mixture of isomers 1, 2, 3 and 4) at a concentration of 65 μg/mL in sterile physiological saline. Isomer 1 (9b) at a concentration of 65 μg/mL in sterile physiological saline. • Isomer 2 (9c) at a concentration of 65 μg/mL in sterile physiological saline. • Isomer 3 (9a) at a concentration of 65 μg/mL in sterile physiological saline. • Isomer 4 (9d) at a concentration of 65 μg/mL in sterile physiological saline. Placebo
Tumours were established by subcutaneous inoculation in the right hind flank. Mice (Balb/c) were inoculated with 0.2 mL containing 2×10^5 viable ASB XIV cells. The day of subcutaneous inoculation will be considered Day 0 of the test.
Mice were observed daily and the tumour size recorded twice a week. This was carried out by measuring two perpendicular diameters (d1/d2) with a calliper. These measures were used to obtain both tumour surface and volume: Tumour surface=d1×d2(mm^2) Tumour volume=d1×d2^2×½(mm^3)
(§2) Results were expressed as single values and/or as the mean±SD or median from each experimental group.
(§3) A case-control study was performed with treated and control mice in order to determine whether differences between BLAS or each diferent stereoisomer and administration of placebo were present. […] The U-test of Mann Withney was chosen for being one of the better known non-parametrical tests, anyway, results for this test are equivalent both to those of Wilcoxon's sum of ranges and Kruskal-Wallis two-groups test.
Due to the high dispersion of data, outlayers (animals beyond percentile 10 or above percentile 90 for tumour surface at day 33) were excluded of the study.

[2] = test system: Renca cells (renal cell carcinoma); experiment: Effect of isomers on in vivo tumour growth in mice challenged with Renca cells (Example 7); set-up: species or system Balb/c mice; settings: for Tumour surface, overall values (Mean) / Tumour surface, overall values (Median) / Tumour volume, overall values (Mean) / Tumour volume, overall values (Median): 260 ng/mouse i.p. days 6, 7, 14
Description: This assay was made in order to check the effect of each stereoisomer on in vivo tumour growth in mice challenged with Renca cells. Their effect was compared with placebo. The stereoisomers assayed were:
Renca is a renal cell carcinoma originated in Balb/c mouse strain, and therefore syngeneic in mice with Balb/c genetic background [Melder R J et al., Cancer Immunol. Immunother., 2005, 54:535-547; Felluga B et al., 1969, J. Natl. Cancer Inst. 43:319-333]. Renca is considered a moderate immunogenic tumour and used as suitable model for testing immunointervention approaches [Salup R R, et al., 1992, The Journal of Urology, 147:1120-1123].
as §1, with “Renca cells” for “ASB XIV cells”, “essential amino acids,” for “essential aminoacids,”, “of Renca” for “of ASB XIV”, “cells for” for “cells in”, “the studies described below.” for “the present example.”
Each isomer was tested at the dose levels of 260 ng administered on days 6, 7 and 14 after tumour inoculation.
The treatments were given by intraperitoneal route (i.p.). The volume inoculated was 0.2 mL/animal. This route was chosen because it is the one described in the original method [Pérez S, et al., 2003, Clinical Cancer Research. 9:5776-5785].
Tumours were established by subcutaneous inoculation in the right hind flank. Mice (Balb/c) were inoculated with 0.2 mL containing 10^5 viable Renca cells. The day of subcutaneous inoculation will be considered Day 0 of the test.
Mice were observed daily and the tumour size recorded twice a week. This was carried out by measuring two perpendicular diameters (L/W) with a calliper. These measures were used to obtain both tumour surface and volume: Tumour surface=L×W(mm^2) Tumour volume=L×W^2×½(mm^3)
as §2
as §3, with “isomers” for “BLAS or each diferent stereoisomer”
Due to the high dispersion of data, outlayers (animals beyond percentile 25 or above percentile 75 for tumour surface at day 25) were excluded of the study.

[3] = day 12 after tumour inoculation
[4] = day 15 after tumour inoculation
[5] = day 19 after tumour inoculation
[6] = day 22 after tumour inoculation
[7] = day 26 after tumour inoculation
[8] = day 29 after tumour inoculation
[9] = day 33 after tumour inoculation
[10] = day 11 after tumour inoculation
[11] = day 14 after tumour inoculation

Br.N[C@@]1(C[n+]2ccccc2)C[C@H](C(=O)O)NC1=O.[Br-] (single isomer, unassigned; isomer 2) [isomer 2, 3R,5R-1-(3-Amino-5-carboxy-2-oxopyrrolidin-3-ylmethyl)pyridinium bromide hidrobromide]
Tumour surface, overall values (Mean) ([1]; day 0 after tumour inoculation): 0 mm^2 | Tumour surface, overall values (Median) ([1]; day 0 after tumour inoculation): 0 mm^2 | Tumour volume, overall values (Mean) ([1]; day 0 after tumour inoculation): 0 mm^3 | Tumour volume, overall values (Median) ([1]; day 0 after tumour inoculation): 0 mm^3 | Tumour surface, overall values (Mean) ([1]; day 8 after tumour inoculation): 0 mm^2 | Tumour surface, overall values (Median) ([1]; day 8 after tumour inoculation): 0 mm^2 | Tumour volume, overall values (Mean) ([1]; day 8 after tumour inoculation): 0 mm^3 | Tumour volume, overall values (Median) ([1]; day 8 after tumour inoculation): 0 mm^3 | Tumour surface, overall values (Mean) [1, 3]: 0.71 mm^2 | Tumour surface, overall values (Median) [1, 3]: 0 mm^2 | Tumour volume, overall values (Mean) [1, 3]: 1 mm^3 | Tumour volume, overall values (Median) [1, 3]: 0 mm^3 | Tumour surface, overall values (Mean) [1, 4]: 6.19 mm^2 | Tumour surface, overall values (Median) [1, 4]: 0 mm^2 | Tumour volume, overall values (Mean) [1, 4]: 12.68 mm^3 | Tumour volume, overall values (Median) [1, 4]: 0 mm^3 | Tumour surface, overall values (Mean) [1, 5]: 29.84 mm^2 | Tumour surface, overall values (Median) [1, 5]: 25 mm^2 | Tumour volume, overall values (Mean) [1, 5]: 102.44 mm^3 | Tumour volume, overall values (Median) [1, 5]: 62.5 mm^3 | Tumour surface, overall values (Mean) [1, 6]: 63.55 mm^2 | Tumour surface, overall values (Median) [1, 6]: 56 mm^2 | Tumour volume, overall values (Mean) [1, 6]: 292.39 mm^3 | Tumour volume, overall values (Median) [1, 6]: 196 mm^3 | Tumour surface, overall values (Mean) [1, 7]: 105.97 mm^2 | Tumour surface, overall values (Median) [1, 7]: 110 mm^2 | Tumour volume, overall values (Mean) [1, 7]: 603.66 mm^3 | Tumour volume, overall values (Median) [1, 7]: 550 mm^3 | Tumour surface, overall values (Mean) [1, 8]: 142.45 mm^2 | Tumour surface, overall values (Median) [1, 8]: 144 mm^2 | Tumour volume, overall values (Mean) [1, 8]: 913.90 mm^3 | Tumour volume, overall values (Median) [1, 8]: 864 mm^3 | Tumour surface, overall values (Mean) [1, 9]: 188.87 mm^2 | Tumour surface, overall values (Median) [1, 9]: 210 mm^2 | Tumour volume, overall values (Mean) [1, 9]: 1377.02 mm^3 | Tumour volume, overall values (Median) [1, 9]: 1436.5 mm^3 | Tumour surface, overall values (Mean) ([2]; day 0 after tumour inoculation): 0 mm^2 | Tumour surface, overall values (Median) ([2]; day 0 after tumour inoculation): 0 mm^2 | Tumour volume, overall values (Mean) ([2]; day 0 after tumour inoculation): 0 mm^3 | Tumour volume, overall values (Median) ([2]; day 0 after tumour inoculation): 0 mm^3 | Tumour surface, overall values (Median) [2, 10]: 0 mm^2 | Tumour volume, overall values (Median) [2, 10]: 0 mm^3 | Tumour surface, overall values (Median) [2, 11]: 9 mm^2

Br.N[C@]1(C[n+]2ccccc2)C[C@@H](C(=O)O)NC1=O.[Br-] (single isomer, unassigned; isomer 3) [isomer 3, 3S,5S-1-(3-Amino-5-carboxy-2-oxopyrrolidin-3-ylmethyl)pyridinium bromide hidrobromide]
Inhibition of the in vivo growth of the lung carcinoma ASB XIV, in words ([1]; 260 ng i.p. days 6, 7 and 14): inhibit the in vivo growth | Tumour surface, overall values (Mean) ([1]; day 0 after tumour inoculation): 0 mm^2 | Tumour surface, overall values (Median) ([1]; day 0 after tumour inoculation): 0 mm^2 | Tumour volume, overall values (Mean) ([1]; day 0 after tumour inoculation): 0 mm^3 | Tumour volume, overall values (Median) ([1]; day 0 after tumour inoculation): 0 mm^3 | Tumour surface, overall values (Mean) ([1]; day 8 after tumour inoculation): 0 mm^2 | Tumour surface, overall values (Median) ([1]; day 8 after tumour inoculation): 0 mm^2 | Tumour volume, overall values (Mean) ([1]; day 8 after tumour inoculation): 0 mm^3 | Tumour volume, overall values (Median) ([1]; day 8 after tumour inoculation): 0 mm^3 | Tumour surface, overall values (Mean) [1, 3]: 0.29 mm^2 | Tumour surface, overall values (Median) [1, 3]: 0 mm^2 | Tumour volume, overall values (Mean) [1, 3]: 0.44 mm^3 | Tumour volume, overall values (Median) [1, 3]: 0 mm^3 | Tumour surface, overall values (Mean) [1, 4]: 2.81 mm^2 | Tumour surface, overall values (Median) [1, 4]: 0 mm^2 | Tumour volume, overall values (Mean) [1, 4]: 6.31 mm^3 | Tumour volume, overall values (Median) [1, 4]: 0 mm^3 | Tumour surface, overall values (Mean) [1, 5]: 15.16 mm^2 | Tumour surface, overall values (Median) [1, 5]: 9 mm^2 | Tumour volume, overall values (Mean) [1, 5]: 44.13 mm^3 | Tumour volume, overall values (Median) [1, 5]: 13.5 mm^3 | Tumour surface, overall values (Mean) [1, 6]: 33.16 mm^2 | Tumour surface, overall values (Median) [1, 6]: 25 mm^2 | Tumour volume, overall values (Mean) [1, 6]: 116.65 mm^3 | Tumour volume, overall values (Median) [1, 6]: 62.5 mm^3 | Tumour surface, overall values (Mean) [1, 7]: 68.67 mm^2 | Tumour surface, overall values (Median) [1, 7]: 64 mm^2 | Tumour volume, overall values (Mean) [1, 7]: 337.18 mm^3 | Tumour volume, overall values (Median) [1, 7]: 256 mm^3 | Tumour surface, overall values (Mean) [1, 8]: 94.61 mm^2 | Tumour surface, overall values (Median) [1, 8]: 99 mm^2 | Tumour volume, overall values (Mean) [1, 8]: 529.37 mm^3 | Tumour volume, overall values (Median) [1, 8]: 445.5 mm^3 | Tumour surface, overall values (Mean) [1, 9]: 131.35 mm^2 | Tumour surface, overall values (Median) [1, 9]: 140 mm^2 | Tumour volume, overall values (Mean) [1, 9]: 848.87 mm^3 | Tumour volume, overall values (Median) [1, 9]: 700 mm^3 | Differences in ASB XIV tumour growth rate vs. placebo, statistical significance p (Mann-Whitney U test) ([1]; either in surface or volume, all days scored after the day 26th): < 0.05 | Inhibition of the in vivo growth of the renal cell carcinoma (Renca), in words ([2]; 260 ng i.p. days 6, 7, 14): inhibit the in vivo growth | Tumour surface, overall values (Mean) ([2]; day 0 after tumour inoculation): 0 mm^2 | Tumour surface, overall values (Median) ([2]; day 0 after tumour inoculation): 0 mm^2 | Tumour volume, overall values (Mean) ([2]; day 0 after tumour inoculation): 0 mm^3 | Tumour volume, overall values (Median) ([2]; day 0 after tumour inoculation): 0 mm^3 | Tumour surface, overall values (Mean) [2, 10]: 0.3 mm^2 | Tumour surface, overall values (Median) [2, 10]: 0 mm^2 | Tumour volume, overall values (Median) [2, 10]: 0 mm^3 | Tumour surface, overall values (Median) [2, 11]: 4 mm^2 | Tumour volume, overall values (Median) [2, 11]: 4 mm^3 | Differences in Renca tumour growth rate vs. placebo, statistical significance p (Mann-Whitney U test) ([2]; either in surface or volume, days 18th and 25th of tumour development): < 0.05
